Test results as given in ChEMBL document CHEMBL5728519, “Compounds of formulas (VII), (VIII), (IX), (XI), (XII), (XIII), and (XIV) as muscarinic receptor 4(M4) antagonists for treating neurological diseases” (2021).

Columns and labels:
[1] = target: T1, Muscarinic acetylcholine receptor M1 (Homo sapiens, UniProt P11229); experiment: (§1) Binding Assay: Binding affinity (Ki) of compounds was measured by inhibition of radioligand binding to membranes from CHO cells expressing human M1, M2, M3, M4 and M5 receptors. Membranes were prepared by nitrogen cavitation and differential centrifugation as previously described (Hoare et al., Mol. Pharmacol. 2003 March; 63(3): 751-65). The radioligand employed was tritiated N-methylscopolamine, used at a concentration of 1.5 nM. A dose-response of twelve concentrations of compound was used, […]. The assay buffer was 50 mM HEPES, 100 mM NaCl, 5 mM MgCl2, 1 mM ethylenediaminetetraacetic acid, pH-adjusted to pH 7.4.
T1 sequence (P11229 whole entry): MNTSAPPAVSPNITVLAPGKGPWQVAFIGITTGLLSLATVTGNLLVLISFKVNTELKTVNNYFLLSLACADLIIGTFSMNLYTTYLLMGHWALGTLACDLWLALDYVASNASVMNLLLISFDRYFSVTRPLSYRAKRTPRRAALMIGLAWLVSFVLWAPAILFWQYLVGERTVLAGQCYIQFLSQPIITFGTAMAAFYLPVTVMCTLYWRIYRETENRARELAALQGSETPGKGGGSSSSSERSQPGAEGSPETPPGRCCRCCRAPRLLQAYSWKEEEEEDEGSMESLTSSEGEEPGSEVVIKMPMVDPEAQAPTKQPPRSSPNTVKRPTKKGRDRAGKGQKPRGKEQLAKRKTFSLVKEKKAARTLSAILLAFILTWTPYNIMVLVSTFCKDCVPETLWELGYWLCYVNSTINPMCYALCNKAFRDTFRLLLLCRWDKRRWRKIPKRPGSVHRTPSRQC

[2] = target: T2, Muscarinic acetylcholine receptor M4 (Homo sapiens, UniProt P08173); experiment: as §1
T2 sequence (P08173 whole entry): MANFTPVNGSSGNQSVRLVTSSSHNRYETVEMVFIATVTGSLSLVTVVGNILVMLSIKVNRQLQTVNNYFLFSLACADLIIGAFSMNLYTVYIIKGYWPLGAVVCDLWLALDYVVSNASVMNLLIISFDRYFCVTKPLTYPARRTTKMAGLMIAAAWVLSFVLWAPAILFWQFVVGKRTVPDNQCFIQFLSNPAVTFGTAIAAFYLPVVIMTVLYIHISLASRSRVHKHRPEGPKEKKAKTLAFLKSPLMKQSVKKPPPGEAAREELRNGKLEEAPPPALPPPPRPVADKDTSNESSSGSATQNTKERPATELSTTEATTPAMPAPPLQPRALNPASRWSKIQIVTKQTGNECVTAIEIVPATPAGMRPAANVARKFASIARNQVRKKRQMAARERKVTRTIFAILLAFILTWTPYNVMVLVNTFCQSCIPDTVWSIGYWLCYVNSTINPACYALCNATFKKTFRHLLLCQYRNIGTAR

Structure (SMILES) | Ki [1] | Ki [2]
C[C@@H]1CN(c2ncc(C(F)(F)F)cn2)CCN1C(=O)NCCC1CCN(Cc2ccccc2)CC1 | 100 to 1000 nM | –
C[C@@H]1CN(c2ncc(C(F)(F)F)c(N)n2)CCN1C(=O)NCCC1CCN(Cc2ccccc2)CC1 | 10 to 100 nM | –
COc1ccc(N2CCN(C(=O)NCCC3CCN(Cc4ccccc4)CC3)[C@H](C)C2)cc1C#N | – | 10 to 100 nM
